Experimental data as given in ChEMBL document CHEMBL1135321, “Tetrahydrothienopyridylbutyl-tetrahydrobenzindoles: new selective ligands of the 5-HT(7) receptor” (Bioorg Med Chem Lett, 2002).
The source made the active and inactive calls. No cut-off for these calls is given here.

How the values were obtained:
[1] = target: Serotonin 2 (5-HT2) receptor (Rattus norvegicus, UniProt P30994+P08909+P14842); assay: Ability to displace the radioligand [3H]ketanserin from 5-hydroxytryptamine 2 receptor of rat cerebral cortex membrane; type: tissue-based
[2] = target: 5-hydroxytryptamine receptor 7 (Homo sapiens, UniProt P34969); assay: Ability to displace the radioligand [3H]5-carboxyamidotryptamine ([3H]5-CT) from human 5-hydroxytryptamine 7 receptor expressed in COS-7 cells; type: cell-based
[3] = target: T1, 5-hydroxytryptamine receptor 1B (Rattus norvegicus, UniProt P28564); assay: Ability to displace the radioligand [125I](-)-iodocyanopindolol from rat striatal 5-hydroxytryptamine 1B receptor
HEK293 = assay: Influence on 5-HT-induced stimulation of cAMP accumulation in HEK 293 cells; NS is not Stimulated; type: functional, cell-based; details: Homo sapiens
[4] = target: T2, Serotonin 3 receptor (5HT3) (Mus musculus, UniProt Q9JHJ5+P23979); assay: Ability to displace the radioligand [3H]GR-65630 from 5-hydroxytryptamine 3 receptor expressed in NIE-115 cells; type: cell-based
T2 sequence (Q9JHJ5 whole entry): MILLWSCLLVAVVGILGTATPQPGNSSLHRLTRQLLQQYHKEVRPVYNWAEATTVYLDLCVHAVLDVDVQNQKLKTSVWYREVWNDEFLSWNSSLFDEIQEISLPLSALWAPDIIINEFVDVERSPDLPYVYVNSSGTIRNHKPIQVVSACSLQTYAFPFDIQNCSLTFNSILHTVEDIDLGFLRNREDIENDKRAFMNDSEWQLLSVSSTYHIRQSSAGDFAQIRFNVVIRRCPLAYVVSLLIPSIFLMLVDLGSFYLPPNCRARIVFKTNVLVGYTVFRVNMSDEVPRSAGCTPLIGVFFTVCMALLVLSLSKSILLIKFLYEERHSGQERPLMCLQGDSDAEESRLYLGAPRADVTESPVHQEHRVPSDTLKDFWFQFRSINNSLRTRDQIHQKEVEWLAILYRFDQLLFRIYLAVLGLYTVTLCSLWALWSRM
T2 sequence (P23979 whole entry): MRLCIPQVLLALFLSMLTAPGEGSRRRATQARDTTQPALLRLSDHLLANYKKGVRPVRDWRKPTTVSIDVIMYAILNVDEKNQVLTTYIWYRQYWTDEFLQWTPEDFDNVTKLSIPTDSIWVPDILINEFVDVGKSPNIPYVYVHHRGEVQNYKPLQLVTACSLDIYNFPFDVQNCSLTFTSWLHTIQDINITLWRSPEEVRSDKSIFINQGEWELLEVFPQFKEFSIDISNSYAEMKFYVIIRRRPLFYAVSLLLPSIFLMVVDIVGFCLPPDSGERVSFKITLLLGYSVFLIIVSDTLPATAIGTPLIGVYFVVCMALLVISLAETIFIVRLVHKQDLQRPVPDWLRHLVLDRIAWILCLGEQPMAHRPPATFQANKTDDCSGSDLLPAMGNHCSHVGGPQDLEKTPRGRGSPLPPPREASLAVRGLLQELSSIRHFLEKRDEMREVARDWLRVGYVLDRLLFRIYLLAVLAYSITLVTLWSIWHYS

[5] = target: T3, 5-hydroxytryptamine receptor 1A (Homo sapiens, UniProt P08908); assay: Ability to displace the radioligand [3H]-8-OH-DPAT from human 5-hydroxytryptamine 1A receptor
T3 sequence (P08908 whole entry): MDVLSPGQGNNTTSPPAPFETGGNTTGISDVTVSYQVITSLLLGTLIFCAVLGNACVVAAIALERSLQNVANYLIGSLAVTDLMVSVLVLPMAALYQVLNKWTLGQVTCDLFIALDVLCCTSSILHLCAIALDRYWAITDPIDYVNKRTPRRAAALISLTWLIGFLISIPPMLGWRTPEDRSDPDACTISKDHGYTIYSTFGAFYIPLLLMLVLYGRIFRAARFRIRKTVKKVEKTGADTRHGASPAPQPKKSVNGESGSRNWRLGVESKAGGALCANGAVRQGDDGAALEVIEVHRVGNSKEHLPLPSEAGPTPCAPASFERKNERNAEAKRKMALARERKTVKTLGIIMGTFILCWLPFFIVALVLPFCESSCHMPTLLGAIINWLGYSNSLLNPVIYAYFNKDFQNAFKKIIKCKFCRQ

[6] = target: T4, 5-hydroxytryptamine receptor 4 (Cavia porcellus, UniProt O70528); assay: Ability to displace the radioligand [3H]GR-113808 from guinea pig striatum 5-hydroxytryptamine 4 receptor
[7] = target: 5-hydroxytryptamine receptor 6 (Homo sapiens, UniProt P50406); assay: Ability to displace the radioligand [3H]LSD from human 5-hydroxytryptamine 6 receptor
[8] = target: T1, 5-hydroxytryptamine receptor 1B; assay: Ability to displace the radioligand [125I](-)-iodocyanopindolol from rat striatal 5-HT1B receptor
[9] = target: T4, 5-hydroxytryptamine receptor 4; assay: Ability to displace the radioligand [3H]GR-113808 from guinea pig striatum 5-HT4 receptor

5-hydroxytryptamine receptor 7, sequence (P34969 whole entry): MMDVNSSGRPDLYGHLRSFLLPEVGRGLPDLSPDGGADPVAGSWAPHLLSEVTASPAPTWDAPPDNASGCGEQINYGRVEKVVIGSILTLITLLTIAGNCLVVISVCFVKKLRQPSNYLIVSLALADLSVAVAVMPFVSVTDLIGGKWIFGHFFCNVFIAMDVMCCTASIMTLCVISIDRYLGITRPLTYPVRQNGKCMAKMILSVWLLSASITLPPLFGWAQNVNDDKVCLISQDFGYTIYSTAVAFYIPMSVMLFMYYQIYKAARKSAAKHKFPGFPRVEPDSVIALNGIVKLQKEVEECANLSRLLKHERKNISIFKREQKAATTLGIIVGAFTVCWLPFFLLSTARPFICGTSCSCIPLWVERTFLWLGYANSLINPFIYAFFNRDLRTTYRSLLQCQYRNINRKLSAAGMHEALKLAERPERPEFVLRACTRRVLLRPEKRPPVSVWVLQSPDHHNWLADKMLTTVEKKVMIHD
T1 sequence (P28564 whole entry): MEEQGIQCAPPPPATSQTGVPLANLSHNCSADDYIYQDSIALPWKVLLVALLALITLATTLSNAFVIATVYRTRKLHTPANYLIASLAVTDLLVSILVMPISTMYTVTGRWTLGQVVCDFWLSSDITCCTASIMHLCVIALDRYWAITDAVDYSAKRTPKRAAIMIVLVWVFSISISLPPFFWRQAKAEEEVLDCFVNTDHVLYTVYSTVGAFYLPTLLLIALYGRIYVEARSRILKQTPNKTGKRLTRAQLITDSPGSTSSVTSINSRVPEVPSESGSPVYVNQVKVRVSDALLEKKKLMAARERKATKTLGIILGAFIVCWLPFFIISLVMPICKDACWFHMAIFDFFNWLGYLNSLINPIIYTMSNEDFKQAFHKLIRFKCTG
5-hydroxytryptamine receptor 6, sequence (P50406 whole entry): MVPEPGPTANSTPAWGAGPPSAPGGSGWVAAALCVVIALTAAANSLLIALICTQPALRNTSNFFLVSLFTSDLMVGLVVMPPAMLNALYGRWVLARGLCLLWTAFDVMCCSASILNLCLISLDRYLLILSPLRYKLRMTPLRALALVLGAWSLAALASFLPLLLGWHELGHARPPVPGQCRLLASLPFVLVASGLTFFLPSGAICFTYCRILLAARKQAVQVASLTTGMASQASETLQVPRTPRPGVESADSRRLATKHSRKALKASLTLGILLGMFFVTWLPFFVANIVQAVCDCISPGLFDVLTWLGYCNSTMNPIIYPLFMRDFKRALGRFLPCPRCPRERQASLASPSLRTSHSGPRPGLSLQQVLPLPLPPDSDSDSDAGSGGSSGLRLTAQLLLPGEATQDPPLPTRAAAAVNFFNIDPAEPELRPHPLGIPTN
T4 sequence (O70528 whole entry): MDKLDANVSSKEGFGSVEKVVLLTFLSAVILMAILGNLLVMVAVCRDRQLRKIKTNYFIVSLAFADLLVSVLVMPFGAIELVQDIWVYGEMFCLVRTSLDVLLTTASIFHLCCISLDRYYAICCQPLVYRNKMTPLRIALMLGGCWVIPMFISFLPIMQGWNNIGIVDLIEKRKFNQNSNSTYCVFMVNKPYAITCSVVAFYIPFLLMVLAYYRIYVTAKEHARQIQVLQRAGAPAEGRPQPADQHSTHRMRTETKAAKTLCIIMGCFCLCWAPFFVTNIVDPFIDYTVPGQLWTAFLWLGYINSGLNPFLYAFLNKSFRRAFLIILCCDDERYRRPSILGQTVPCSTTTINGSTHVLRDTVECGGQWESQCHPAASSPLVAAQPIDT

Row | Compound | Log Ki [1] | Ki [2] [nM] | also measured
1 | O=C1Nc2cccc3c2C1(CCCCN1CCc2sccc2C1)CCC3 (centres undefined) | -6.08 | 6.46 | Ki [3]: > 1000 nM; Activity (HEK293): inactive; Log Ki [4]: < -6; Ki [5]: 513 nM; Ki [6]: > 1000 nM; Ki [7]: > 1000 nM
2 | CCN1C(=O)C2(CCCCN3CCc4sccc4C3)CCCc3cccc1c32 (centres undefined) | -6.31 | 174 | 
3 | O=C1Nc2cccc3c2C1(CCCCCN1CCc2ccccc2C1)CCC3 (centres undefined) | -6.16 | 12.6 | 
4 | O=C1Nc2cccc3c2C1(CCCN1CCc2ccccc2C1)CCC3 (centres undefined) | -6.31 | 8.32 | 
5 | O=C1Nc2cccc3c2C1(CCCCN1CCc2ccccc2C1)CCC3 (centres undefined) | -6.21 | 4.47 | 
6 | CN1C(=O)C2(CCCCN3CCc4sccc4C3)CCCc3cccc1c32 (centres undefined) | -6.02 | 9.77 | Log Ki [4]: < -6; Ki [5]: 776 nM; Ki [8]: > 1000 nM; Ki [7]: > 1000 nM; Ki [9]: > 1000 nM

Second part, led by results:

Row | Log Ki [1] | Ki [2] [nM] | Compound | also measured
7 | < -6 | 562 | O=C1Nc2cccc3c2C1(CCCCN1CCc2[nH]cnc2C1)CCC3 (centres undefined) | 
8 | < -6 | 15.8 | O=C1Nc2cccc3c2C1(CCCCN1CCc2occc2C1)CCC3 (centres undefined) | 
9 | < -6 | 813 | O=C1Nc2cccc3c2C1(CCCCN1CCc2n[nH]cc2C1)CCC3 (centres undefined) | 
